In patent US9913921B2, “Pretargeting kit for imaging or therapy comprising a trans-cyclooctene dienophile and a diene” (TAGWORKS PHARMACEUTICALS B.V., priority 2011, dated 2018):

Experiments:
[1] = Reactivity of tetrazines towards trans-cyclooct-4-ene-1-ol (minor isomer), competition experiment; conditions: reference 3-(5-acetamido-2-pyridyl)-6-(2-pyridyl)-1,2,4,5-tetrazine
Procedure: A competition experiment was performed to determine the reactivity ratio of a specific tetrazine and 3-(5-acetamido-2-pyridyl)-6-(2-pyridyl)-1,2,4,5-tetrazine (that was chosen as the reference tetrazine), in the inverse-electron demand Diels-Alder reaction with trans-cyclooct-4-ene-1-ol (minor isomer).
To acetonitrile (0.100 mL) was added 5 μL of a solution of the specific tetrazine in DMSO (25 mM) and 5 μL, of a solution of the reference tetrazine in DMSO (25 mM). This mixture was diluted with water (0.9 mL), and the absolute amounts of both tetrazines was determined by HPLC-MS/PDA analysis. Subsequently, a solution of trans-cyclooct-4-ene-1-ol (minor isomer) in DMSO (25 μL, 2.5 mM) was slowly added, and the mixture was stirred for 5 min. Again, the absolute amounts of both tetrazines was determined by HPLC-MS/PDA analysis, and conversions for both tetrazines was calculated. From these conversions, the reactivity ratio (R=k2,TCO/k2,Ref) of both tetrazines was calculated using the mathematical procedure from Ingold and Shaw (J. Chem. Soc., 1927, 2918-2926).

[2] = Hydrolytic stability tests of tetrazines; format: physicochemical; conditions: PBS buffer, 20° C.
[3] = Stability of trans-cyclooctene derivatives; format: physicochemical; conditions: PBS buffer, 20° C., in the dark, estimation
Procedure: 10 μL of a solution of the specific trans-cyclooctene derivative in dioxane (25 mM) was diluted with PBS buffer (3 mL), and this solution was stored at 20° C. in the dark. The faith of the TCO compound was monitored by HPLC-MS analysis, and an estimation of the half-life time was made.

[4] = Reactivity of trans-cyclooctene derivatives towards bis(2-pyridyl)-1,2,4,5-tetrazine, competition experiment; conditions: for reactivity towards tetrazines compared to minor isomer of trans-cyclooct-4-ene-1-ol: in words; for Reactivity ratio (R = k2,TCO/k2,Ref): reference trans-cyclooct-4-ene-1-ol (minor isomer)
Procedure: A competition experiment was performed to determine the reactivity ratio of a specific trans-cyclooctene derivative and trans-cyclooct-4-ene-1-ol (minor isomer) (that was chosen as the reference trans-cyclooctene), in the inverse-electron demand Diels-Alder reaction with bis(2-pyridyl)-1,2,4,5-tetrazine.
This mixture was diluted with water (0.45 mL). Subsequently, a solution of bis(2-pyridyl)-1,2,4,5-tetrazine (6.25*10^−8 mol) in a mixture of acetonitrile (0.05 mL) and water (0.45 mL) was slowly added while stirring vigorously. After addition, the mixture was stirred for an additional 5 min. The conversion of both trans-cyclooctene derivatives was determined by HPLC-MS/PDA analysis, and from these conversions, the reactivity ratio (R=k2,TCO/k2,Ref) of the specific trans-cyclooctene derivative was calculated using the mathematical procedure from Ingold and Shaw (J. Chem. Soc., 1927, 2918-2926).

[5] = Reaction of trans-cyclooctene β-lactam derivative with tetrazine; conditions: equimolar (6.25*10^−8 mol) in water, immediate discoloration, HPLC-MS
[6] = as above; conditions: equimolar (6.25*10^−8 mol) in water, immediate discoloration, HPLC-MS; remark: listed apart in the source
Procedure: To a solution of 3-(5-acetamido-2-pyridyl)-6-(2-pyridyl)-1,2,4,5-tetrazine (6.25*10^−8 mol) in water (1 mL) was added the trans-cyclooctene β-lactam derivative 25 (6.25*10^−8 mol). […] This was confirmed by HPLC-MS analysis: complete disappearance of the tetrazine signal and formation of the rDA adduct with m/z=475.33 (M+H^+).

[7] = as above; conditions: equimolar (6.25*10^−8 mol) in water, immediate discoloration, HPLC-MS; remark: listed apart in the source
Procedure: To a solution of (4-(1,2,4,5-tetrazin-3-yl)phenyl)methanamine (6.25*10^−8 mol) in water (1 mL) was added the trans-cyclooctene β-lactam derivative 25 (6.25*10^−8 mol). […] This was confirmed by HPLC-MS analysis: complete disappearance of the tetrazine signal and formation of the rDA adduct with m/z=369.17 (M+H^+).

[8] = as above; conditions: tetrazine suspension in water
Procedure: To a suspension of 3,6-diphenyl-1,2,4,5-tetrazine (6.25*10^−8 mol) in water (1 mL) was added the trans-cyclooctene β-lactam derivative 25 (6.25*10^−8 mol). […] This was confirmed by HPLC-MS analysis: complete disappearance of the tetrazine signal and formation of the rDA adduct with m/z=416.42 (M+H^+).

[9] = as above; conditions: equimolar (6.25*10^−8 mol) in water, immediate discoloration, HPLC-MS; remark: listed apart in the source
Procedure: To a solution of 3-(5-butyramido-2-pyridyl)-6-(2-pyrimidyl)-1,2,4,5-tetrazine (6.25*10^−8 mol) in water (1 mL) was added the trans-cyclooctene β-lactam derivative 25 (6.25*10^−8 mol). […] This was confirmed by HPLC-MS analysis: complete disappearance of the tetrazine signal and formation of the rDA adduct with m/z=504.42 (M+H^+).

c1cnc(-c2nnc(-c3ncccn3)nn2)nc1
Reactivity ratio (R = k2,TZ/k2,Ref) [1]: 0.12
half-life at 83 µM [2]: 4.5 h

O=C(O)C1C2CC/C=C/CCC21 (stereo not drawn) [compound 4, (E-endo)-Bicyclo[6.1.0]non-4-ene-9-carboxylic acid]
half-life at 83 µM [3]: > 72 h
reactivity towards tetrazines compared to minor isomer of trans-cyclooct-4-ene-1-ol [4]: markedly increased reactivity
Reactivity ratio (R = k2,TCO/k2,Ref) ([4]; listed as drawing 42): 13.1

O=C(O)C1C2CC/C=C/CCC21 (stereo not drawn) [compound 5, (E-exo)-Bicyclo[6.1.0]non-4-ene-9-carboxylic acid]
reactivity towards tetrazines compared to minor isomer of trans-cyclooct-4-ene-1-ol [4]: markedly increased reactivity
Reactivity ratio (R = k2,TCO/k2,Ref) ([4]; listed as drawing 43): 20.0

O=C(O)CN1C(=O)C2CC/C=C/CCC21 (stereo not shown) [compound 25, (E)-2-(10-oxo-9-azabicyclo[6.2.0]dec-4-en-9-yl)acetic acid]
reaction with tetrazine [5]: quantitative reaction
half-life at 83 µM [3]: ~24 h
reaction with tetrazine [6]: quantitative reaction
reactivity towards tetrazines compared to minor isomer of trans-cyclooct-4-ene-1-ol [4]: markedly increased reactivity
Reactivity ratio (R = k2,TCO/k2,Ref) [4]: 5.4
reaction with tetrazine [7]: quantitative reaction
reaction with tetrazine ([8]; equimolar (6.25*10^−8 mol), HPLC-MS): quantitative reaction
time until pink, turbid mixture became clear and colorless [8]: ≤ 15 min
reaction with tetrazine [9]: quantitative reaction

O=C1N[C@H]2CC/C=C/CC[C@H]2N1 [compound 40, Cis (E)-3,3a,4,5,9,9a-hexahydro-1H-cycloocta[d]imidazol-2(8H)-one]
half-life at 83 µM [3]: > 72 h
reactivity towards tetrazines compared to minor isomer of trans-cyclooct-4-ene-1-ol [4]: markedly increased reactivity
Reactivity ratio (R = k2,TCO/k2,Ref) [4]: 7.3
